Results: US20080227732A1, “Treatment and Control of Severe Infections Including Cystic Fibrosis” (VENUS REMEDIES LIMITED, priority 2005, published 2008)

Experiments:
[1] = febrile children with neutropenia, 5 to 10 days of therapy; cited from earlier work
Klebsiella = experiment: Bacterial susceptibility test, disc diffusion on Müeller-Hinton Agar; assay type: cell-based, Klebsiella pneumoniae; details: Concentration 2.18 g
Protocol: (§1) This test was performed by disc diffusion test for ceftazidime and tobramycin on Müeller-Hinton Agar medium purchased from Hi Media. The medium was prepared and used as per manufacturer's instructions. Ceftazidime alone, Tobramycin alone and the combination of Ceftazidime and Tobramycin, on different micro-organisms was taken. […] For each concentration the three zones were observed i.e for combination, Ceftazidime alone and Tobramycin alone and tested for efficacy against various types of micro-organisms.

[2] = cited from earlier work
P. aurignosa = experiment: Bacterial susceptibility test, disc diffusion on Müeller-Hinton Agar; assay type: cell-based; details: for zone of inhibition: Concentration 560 mg; for Zone size: Concentration 1.12 g
Protocol: as §1

E. coli = experiment: as above; assay type: cell-based; details: for Zone size: Concentration 1.12 g; for zone of inhibition: Escherichia coli, Concentration 560 mg
Protocol: as §1

MRSA = experiment: as above; assay type: cell-based; details: for zone of inhibition: Staphylococcus aureus, MRSA, Concentration 560 mg
Protocol: as §1

C. albicanus = experiment: as above; assay type: cell-based; details: Concentration 2.18 g
Protocol: as §1

Stapylococcus = experiment: as above; assay type: cell-based, Staphylococcus (MSSA); details: Concentration 2.18 g
Protocol: as §1

[3] = High: C 2.0, T 0.18, I 2.18 mg/ml
[4] = Highest: C 20.0, T 1.8, I 21.8 mg/ml
[5] = Low: C 0.2, T 0.018, I 0.218 mg/ml
[6] = High: C 0.5, T 0.06, I 0.56 mg/ml
[7] = Highest: C 5.0, T 0.6, I 5.6 mg/ml
[8] = Low: C 0.05, T 0.006, I 0.056 mg/ml
[9] = Lowest: C 0.005, T 0.0006, I 0.0056 mg/ml
[10] = High: C 1.0, T 0.12, I 1.12 mg/ml
[11] = Highest: C 10.0, T 1.2, I 11.2 mg/ml
[12] = Low: C 0.1, T 0.01, I 0.112 mg/ml
[13] = Lowest: C 0.01, T 0.001, I 0.011 mg/ml
[14] = Concentration 1.12 g, High: C 1.0, T 0.12, I 1.12 mg/ml
[15] = Concentration 1.12 g, Highest: C 10.0, T 1.2, I 11.2 mg/ml
[16] = Concentration 1.12 g, Low: C 0.1, T 0.01, I 0.112 mg/ml
[17] = Concentration 1.12 g, Lowest: C 0.01, T 0.001, I 0.011 mg/ml
[18] = Concentration 2.18 g, High: C 2.0, T 0.18, I 2.18 mg/ml
[19] = Concentration 2.18 g, Highest: C 20.0, T 1.8, I 21.8 mg/ml
[20] = Lowest: C 0.02, T 0.0018, I 0.0218 mg/ml

Row | SMILES | Zone size (Klebsiella; [3]) [mm] | Zone size (Klebsiella; [4]) [mm] | Zone size (Klebsiella; [5]) [mm] | zone of inhibition (P. aurignosa; [6]) [mm] | zone of inhibition (P. aurignosa; [7]) [mm] | zone of inhibition (P. aurignosa; [8]) [mm] | zone of inhibition (P. aurignosa; [9]) [mm] | Zone size (P. aurignosa; [10]) [mm] | Zone size (P. aurignosa; [11]) [mm] | Zone size (P. aurignosa; [12]) [mm] | Zone size (P. aurignosa; [13]) [mm] | Zone size (E. coli; [10]) [mm] | Zone size (E. coli; [11]) [mm] | Zone size (E. coli; [12]) [mm] | Zone size (E. coli; [13]) [mm] | zone of inhibition (E. coli; [6]) [mm] | zone of inhibition (E. coli; [7]) [mm] | zone of inhibition (E. coli; [8]) [mm] | zone of inhibition (E. coli; [9]) [mm] | Zone size (MRSA; [14]) [mm] | further results
1 | CC(C)(O/N=C(\C(=O)N[C@@H]1C(=O)N2C(C(=O)[O-])=C(C[n+]3ccccc3)CS[C@H]12)c1csc(N)n1)C(=O)O [C, Ceftazidime] | 47.47 | 51.22 | 46.30 | 36 | 41.8 | 24.5 | 14.4 | 44.10 | 48.34 | 32.48 | 29.34 | 42.10 | 47.34 | 35.49 | 33.34 | 42.1 | 47.3 | 35.5 | 33.3 | 12.53 | patients clinically cured at the end of therapy [1]: 67%; overall response rate in septicaemia ([2]; cancer patients): 75%; overall response rate ([2]; episodes of infection in cancer patients): 60%; Zone size (MRSA; [15]): 22.39 mm; Zone size (MRSA; [16]): 0 mm; Zone size (MRSA; [17]): 0 mm; Zone size (MRSA; [18]): 27.32 mm; Zone size (MRSA; [19]): 44.93 mm; zone of inhibition (MRSA; [6]): 12.9 mm; zone of inhibition (MRSA; [7]): 21.2 mm; zone of inhibition (MRSA; [9]): 0 mm; Zone size (C. albicanus; [3]): 31.25 mm; Zone size (C. albicanus; [4]): 37.55 mm; Zone size (C. albicanus; [5]): 18.37 mm; Zone size (C. albicanus; [20]): 12.90 mm; Zone size (Stapylococcus; [3]): 35.76 mm; Zone size (Stapylococcus; [4]): 50.93 mm; Zone size (Stapylococcus; [5]): 22.45 mm
2 | NC[C@H]1O[C@H](O[C@H]2[C@H](O)[C@@H](O[C@H]3O[C@H](CO)[C@@H](O)[C@H](N)[C@H]3O)[C@H](N)C[C@@H]2N)[C@H](N)C[C@@H]1O [T, Tobramycin] | 32.07 | 38.71 | 31.50 | 21.2 | 32.1 | 16.7 | 10.9 | 23.02 | 30.31 | 19.16 | 11.35 | 25.02 | 30.30 | 22.16 | 14.35 | 25 | 30.3 | 22.2 | 14.3 | 22.45 | Zone size (MRSA; [15]): 33.22 mm; Zone size (MRSA; [16]): 10.24 mm; Zone size (MRSA; [17]): 9.89 mm; Zone size (MRSA; [18]): 14.61 mm; Zone size (MRSA; [19]): 17.13 mm; zone of inhibition (MRSA; [6]): 23.9 mm; zone of inhibition (MRSA; [7]): 32.4 mm; zone of inhibition (MRSA; [8]): 11.7 mm; zone of inhibition (MRSA; [9]): 9.46 mm; Zone size (C. albicanus; [3]): 26.45 mm; Zone size (C. albicanus; [4]): 35.47 mm; Zone size (C. albicanus; [5]): 15.65 mm; Zone size (C. albicanus; [20]): 0 mm; Zone size (Stapylococcus; [3]): 27.49 mm; Zone size (Stapylococcus; [4]): 36.96 mm; Zone size (Stapylococcus; [5]): 16.68 mm
